# Results reported in patent US20260265233A1, “BENZOTHIOPHENE DERIVATIVES AS RXFP1 AGONISTS” (BRISTOL-MYERS SQUIBB COMPANY, priority 2021, published 2026).
# pEC50: −log10 of the molar value.
# Target: T1, human RXFP1 (Homo sapiens, UniProt Q9HBX9)
# T1 construct: expressed in transfected cells
# T1 sequence (Q9HBX9 1-757): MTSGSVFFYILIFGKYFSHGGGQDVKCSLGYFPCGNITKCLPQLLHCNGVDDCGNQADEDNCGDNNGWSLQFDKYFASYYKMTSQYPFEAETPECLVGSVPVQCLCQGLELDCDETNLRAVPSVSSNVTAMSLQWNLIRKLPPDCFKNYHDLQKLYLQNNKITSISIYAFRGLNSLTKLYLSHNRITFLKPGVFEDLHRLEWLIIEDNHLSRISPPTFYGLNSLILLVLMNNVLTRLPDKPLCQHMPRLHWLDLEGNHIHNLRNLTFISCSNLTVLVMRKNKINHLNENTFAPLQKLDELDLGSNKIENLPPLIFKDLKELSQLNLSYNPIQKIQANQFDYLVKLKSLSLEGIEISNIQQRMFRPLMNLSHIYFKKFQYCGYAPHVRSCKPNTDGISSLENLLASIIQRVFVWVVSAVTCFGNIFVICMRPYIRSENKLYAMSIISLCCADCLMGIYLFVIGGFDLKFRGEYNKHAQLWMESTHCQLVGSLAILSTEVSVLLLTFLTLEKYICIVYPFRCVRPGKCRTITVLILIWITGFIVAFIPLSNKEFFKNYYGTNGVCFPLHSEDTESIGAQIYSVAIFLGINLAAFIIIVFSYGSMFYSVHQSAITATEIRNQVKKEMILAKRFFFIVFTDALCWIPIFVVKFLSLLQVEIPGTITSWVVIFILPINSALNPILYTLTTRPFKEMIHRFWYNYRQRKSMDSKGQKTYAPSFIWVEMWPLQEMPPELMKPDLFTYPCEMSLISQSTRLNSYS
# Assay: hRXFP1 HEK293 cAMP assay (HTRF)
# Type: cell-based
# Details: HEK293 cells stably expressing human RXFP1; 30 min at rt; intracellular cAMP by HTRF
# Procedure, shortened: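 HEK293 cells stably expressing human RXFP1 treated 30 min at rt with compound (0.010 nM to 50 μM, 2% DMSO) in HBSS/HEPES buffer with 0.5 mM IBMX. Intracellular cAMP measured by HTRF (665/590 nm ratio) against a cAMP standard curve; potency fitted by 4-parameter logistic.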
row,SMILES,pEC50
1,"COc1ccc(C2CC3(C2)CN(CCS(C)(=O)=O)C3)cc1C(=O)Nc1c(C(=O)Nc2ccc(F)c(C(F)(F)F)c2)sc2cc(C(F)(F)F)ccc12 [Example 205, N-(4-fluoro-3-(trifluoromethyl)phenyl)-3-(2-methoxy-5-(2-(2-(methylsulfonyl)ethyl)-2-azaspiro[3.3]heptan-6-yl)benzamido)-6-(trifluoromethyl) benzo[b] thiophene-2-carboxamide]",5.96
2,"COc1ccc(N2CCC[C@@H](NC(=O)CN(C)C)C2)cc1C(=O)Nc1c(C(=O)Nc2ccc(F)c(C(F)(F)F)c2)sc2cc(C(F)(F)F)ccc12 [Example 209, (R)-3-(5-(3-(2-(dimethylamino)acetamido)piperidin-1-yl)-2-methoxy-benzamido)-N-(4-fluoro-3-(trifluoromethyl)phenyl)-6-(trifluoromethyl) benzo[b] thiophene-2-carboxamide]",5.83
3,"COc1ccc(-c2cnn(C)c2C(=O)O)cc1C(=O)Nc1c(C(=O)Nc2ccc(F)c(C(F)(F)F)c2)sc2cc(C(F)(F)F)ccc12 [Example 212, 4-(3-((2-((4-fluoro-3-(trifluoromethyl)phenyl)carbamoyl)-6-(trifluoromethyl)benzo[b]thiophen-3-yl)carbamoyl)-4-methoxyphenyl)-1-methyl-1H-pyrazole-5-carboxylic acid]",5.48
4,"COc1ccc(C2CCCN(C(C)C)CC2)cc1C(=O)Nc1c(C(=O)Nc2ccc(F)c(C(F)(F)F)c2)sc2cc(C(F)(F)F)ccc12 (stereo not drawn) [Example 213, N-(4-fluoro-3-(trifluoromethyl)phenyl)-3-(5-(1-isopropylazepan-4-yl)-2-methoxy-benzamido)-6-(trifluoromethyl) benzo[b] thiophene-2-carboxamide]",5.47
5,"COc1ccc(-c2cc(C(=O)O)ccc2F)cc1C(=O)Nc1c(C(=O)Nc2ccc(F)c(C(F)(F)F)c2)sc2ccc(C(F)(F)F)cc12 [Example 214, 6-fluoro-3′-((2-((4-fluoro-3-(trifluoromethyl)phenyl)carbamoyl)-5-(trifluoromethyl)benzo[b]thiophen-3-yl)carbamoyl)-4′-methoxy-[1,1′-biphenyl]-3-carboxylic acid]",5.67
6,"COc1ccc(-c2cc(C(=O)O)ccc2F)cc1C(=O)Nc1c(C(=O)Nc2ccc(F)c(C(F)(F)F)c2)sc2cc(C)ccc12 [Example 215, 6-fluoro-3′-((2-((4-fluoro-3-(trifluoromethyl)phenyl)carbamoyl)-6-methylbenzo[b]thiophen-3-yl)carbamoyl)-4′-methoxy-[1,1′-biphenyl]-3-carboxylic acid]",5.84
7,"COCCNC(=O)c1ccc(OC)c(C(=O)Nc2c(C(=O)Nc3ccc(F)c(C(F)(F)F)c3)sc3cc(C(F)(F)F)ccc23)c1 [Example 218, N3-(2-((4-fluoro-3-(trifluoromethyl)phenyl)carbamoyl)-6-(trifluoromethyl)benzo[b]thiophen-3-yl)-4-methoxy-N1-(2-methoxyethyl) isophthalamide]",5.95
8,"COc1ccc(C(=O)N2CCC[C@@H](O)C2)cc1C(=O)Nc1c(C(=O)Nc2ccc(F)c(C(F)(F)F)c2)sc2cc(C(F)(F)F)ccc12 [Example 219, (R)-N-(4-fluoro-3-(trifluoromethyl)phenyl)-3-(5-(3-hydroxy-piperidine-1-carbonyl)-2-methoxy-benzamido)-6-(trifluoromethyl) benzo[b] thiophene-2-carboxamide]",5.94
9,"COc1ccc(C(=O)N2CCC3(CC2)COC3)cc1C(=O)Nc1c(C(=O)Nc2ccc(F)c(C(F)(F)F)c2)sc2cc(C(F)(F)F)ccc12 [Example 222, N-(4-fluoro-3-(trifluoromethyl)phenyl)-3-(2-methoxy-5-(2-oxa-7-azaspiro[3.5]nonane-7-carbonyl)benzamido)-6-(trifluoromethyl) benzo[b] thiophene-2-carboxamide]",5.79
10,"COc1ccc(S(=O)(=O)N2CCC(C(C)(C)O)CC2)cc1C(=O)Nc1c(C(=O)Nc2ccc(F)c(C(F)(F)F)c2)sc2cc(C(F)(F)F)ccc12 [Example 225, N-(4-fluoro-3-(trifluoromethyl)phenyl)-3-(5-((4-(2-hydroxypropan-2-yl)piperidin-1-yl)sulfonyl)-2-methoxy-benzamido)-6-(trifluoromethyl) benzo[b] thiophene-2-carboxamide]",5.97
11,"COc1cc(C)c(C(=O)N2CC3(C2)CS(=O)(=O)C3)cc1C(=O)Nc1c(C(=O)Nc2ccc(F)c(C(F)(F)F)c2)sc2cc(C(F)(F)F)ccc12 [Example 226, 3-(5-(2,2-dioxido-2-thia-6-azaspiro[3.3]heptane-6-carbonyl)-2-methoxy-4-methylbenzamido)-N-(4-fluoro-3-(trifluoromethyl)phenyl)-6-(trifluoromethyl) benzo[b] thiophene-2-carboxamide]",5.75

# Further molecules by rising pEC50, results first:
row,pEC50,SMILES
1,5.46,"COc1ccc(C(=O)NCCCO)cc1C(=O)Nc1c(C(=O)Nc2ccc(F)c(C(F)(F)F)c2)sc2cc(C(F)(F)F)ccc12 [Example 216, N3-(2-((4-fluoro-3-(trifluoromethyl)phenyl)carbamoyl)-6-(trifluoromethyl)benzo[b]thiophen-3-yl)-N1-(3-hydroxypropyl)-4-methoxy-isophthalamide]"
2,5.60,"COc1ccc(C(=O)N(C)C)cc1C(=O)Nc1c(C(=O)Nc2ccc(F)c(C(F)(F)F)c2)sc2cc(C(F)(F)F)ccc12 [Example 220, N3-(2-((4-fluoro-3-(trifluoromethyl)phenyl)carbamoyl)-6-(trifluoromethyl)benzo[b]thiophen-3-yl)-4-methoxy-N1,N1-dimethyl-isophthalamide]"
3,5.64,"COc1ccc(C(=O)NCCO)cc1C(=O)Nc1c(C(=O)Nc2ccc(F)c(C(F)(F)F)c2)sc2cc(C(F)(F)F)ccc12 [Example 217, N3-(2-((4-fluoro-3-(trifluoromethyl)phenyl)carbamoyl)-6-(trifluoromethyl)benzo[b]thiophen-3-yl)-N1-(2-hydroxyethyl)-4-methoxy-isophthalamide]"
4,5.68,"COc1ccc(C2CC3(C2)CN(C(=O)CN(C)C)C3)cc1C(=O)Nc1c(C(=O)Nc2ccc(F)c(C(F)(F)F)c2)sc2cc(C(F)(F)F)ccc12 [Example 206, 3-(5-(2-(dimethylglycyl)-2-azaspiro[3.3]heptan-6-yl)-2-methoxy-benzamido)-N-(4-fluoro-3-(trifluoromethyl)phenyl)-6-(trifluoromethyl) benzo[b] thiophene-2-carboxamide]"
5,5.83,"COc1ccc(N2CCC3(C2)CN(C2COC2)C3)cc1C(=O)Nc1c(C(=O)Nc2ccc(F)c(C(F)(F)F)c2)sc2cc(C(F)(F)F)ccc12 [Example 208, N-(4-fluoro-3-(trifluoromethyl)phenyl)-3-(2-methoxy-5-(2-(oxetan-3-yl)-2,6-diazaspiro[3.4]octan-6-yl)benzamido)-6-(trifluoromethyl) benzo[b] thiophene-2-carboxamide]"
6,5.84,"COc1ccc(C2CC3(CNC3)C2)cc1C(=O)Nc1c(C(=O)Nc2ccc(F)c(C(F)(F)F)c2)sc2cc(C(F)(F)F)ccc12 [Example 207, N-(4-fluoro-3-(trifluoromethyl)phenyl)-3-(2-methoxy-5-(2-azaspiro[3.3]heptan-6-yl)benzamido)-6-(trifluoromethyl) benzo[b] thiophene-2-carboxamide]"
7,5.90,"COc1ncc(C(=O)OC(C)(C)C)cc1C(=O)Nc1c(C(=O)Nc2ccc(F)c(C(F)(F)F)c2)sc2cc(C(F)(F)F)ccc12 [Example 223, tert-butyl 5-((2-((4-fluoro-3-(trifluoromethyl)phenyl)carbamoyl)-6-(trifluoromethyl)benzo[b]thiophen-3-yl)carbamoyl)-6-methoxynicotinate]"
8,5.93,"COc1ccc(C2CC3(C2)CN(S(C)(=O)=O)C3)cc1C(=O)Nc1c(C(=O)Nc2ccc(F)c(C(F)(F)F)c2)sc2cc(C(F)(F)F)ccc12 [Example 204, N-(4-fluoro-3-(trifluoromethyl)phenyl)-3-(2-methoxy-5-(2-(methylsulfonyl)-2-azaspiro[3.3]heptan-6-yl)benzamido)-6-(trifluoromethyl) benzo[b] thiophene-2-carboxamide]"
9,5.96,"COc1ccc(C(=O)N2CCOCC2)cc1C(=O)Nc1c(C(=O)Nc2ccc(F)c(C(F)(F)F)c2)sc2cc(C(F)(F)F)ccc12 [Example 221, N-(4-fluoro-3-(trifluoromethyl)phenyl)-3-(2-methoxy-5-(morpholine-4-carbonyl)benzamido)-6-(trifluoromethyl) benzo[b] thiophene-2-carboxamide]"
10,7.44,"COc1ccc(C(=O)NCC(C)(C)S(C)(=O)=O)cc1C(=O)Nc1c(C(=O)Nc2ccc(F)c(C(F)(F)F)c2)sc2cc(C(F)(F)F)ccc12 [Example 203, N3-(2-{[4-fluoro-3-(trifluoromethyl)phenyl]carbamoyl}-6-(trifluoromethyl)-1-benzothiophen-3-yl)-N1-(2-methanesulfonyl-2-methylpropyl)-4-methoxybenzene-1,3-dicarboxamide]"
